In the NIST ThermoML archive (doi:10.1021/acs.jced.7b00483):

Assay: molar heat capacity at constant pressure
Conditions: 100 kPa, Liquid, Flow calorimetry

O [water]
Conditions	molar heat capacity at constant pressure [J/K/mol]
298.15 K	75.66
303.15 K	75.57
308.15 K	75.54
313.15 K	75.5
318.15 K	75.47
323.15 K	75.45
328.15 K	75.45
333.15 K	75.47
338.15 K	75.5
343.15 K	75.57
348.15 K	75.66
353.15 K	75.77
358.15 K	75.9
363.15 K	76.02
